We go through 7 compounds from PMC7509987 (Biochemistry, 2020).

One may read the IC50 as the concentration needed to halve the response being measured. High values mean weaker potency, low ones greater potency. Usually solubility stands for the dissolved amount per volume that the medium holds. Read a high solubility as a readily soluble substance. Usually Km stands for the substrate concentration at which the rate is half of its maximum.

Data set [1] has as its system GPX. The note with it: great excess of 4-hydroxynonenal (1 mM); cited from earlier work.
The target in data set [2] is T1, DmTrxR-CCS (Drosophila melanogaster, UniProt P91938). The data set is described as follows: NADPH-pre-reduced enzyme. In kind it is biochemical. Particulars: n = 3.
Target sequence in this assay (P91938 106-596): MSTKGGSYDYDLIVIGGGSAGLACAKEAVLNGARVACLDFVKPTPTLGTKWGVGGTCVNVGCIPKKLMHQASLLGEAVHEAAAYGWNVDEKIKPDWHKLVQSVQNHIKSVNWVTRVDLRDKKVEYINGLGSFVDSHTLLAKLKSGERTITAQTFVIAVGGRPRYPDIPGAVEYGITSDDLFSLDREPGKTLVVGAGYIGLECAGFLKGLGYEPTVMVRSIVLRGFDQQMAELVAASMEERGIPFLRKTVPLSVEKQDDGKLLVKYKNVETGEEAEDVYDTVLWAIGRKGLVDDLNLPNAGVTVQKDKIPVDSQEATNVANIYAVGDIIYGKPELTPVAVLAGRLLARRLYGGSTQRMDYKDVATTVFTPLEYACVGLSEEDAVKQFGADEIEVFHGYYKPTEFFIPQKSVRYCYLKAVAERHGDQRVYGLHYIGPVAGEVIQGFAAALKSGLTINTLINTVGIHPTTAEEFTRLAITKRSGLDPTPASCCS
The target in data set [3] is mTrxR-C(αMe)UG (Mus musculus, UniProt Q9JLT4). Kind of data set: Inhibition of Trx-reductase activity by electrophiles. The format is biochemical.
Data set [4] has as its target T1, DmTrxR-CCS. The data set is described as above. The format is biochemical, D. melanogaster. Particulars: 7 μM acrolein, pH 7, 10 min, 22 °C.
Target sequence in this assay (P91938 1-491 isoform P91938-2): as the sequence (P91938 106-596) above, with S2A, T3P, K4V, G5Q counted along it
Data set [5] addresses mTrxR-CUG (Mus musculus, UniProt Q9JLT4). Described as above. In kind it is biochemical.
Data set [6] in a line: Solubility in aqueous solutions. In kind it is physicochemical.
The subject of data set [7] is mTrxR-C(αMe)UG. The format is biochemical. Particulars: read-out: KM (μM), Table 3, DTNB as substrate; n = 3.
In data set [8] the test system is mTrxR-C(αMe)UG. In kind it is biochemical. Particulars: read-out: KM (μM), Table 4, selenocysteamine as substrate; n = 3.

Structures are written as SMILES. Read-outs that look alike come from different tables or passages of the source.

mTrxR-CUG, sequence (Q9JLT4 35-524): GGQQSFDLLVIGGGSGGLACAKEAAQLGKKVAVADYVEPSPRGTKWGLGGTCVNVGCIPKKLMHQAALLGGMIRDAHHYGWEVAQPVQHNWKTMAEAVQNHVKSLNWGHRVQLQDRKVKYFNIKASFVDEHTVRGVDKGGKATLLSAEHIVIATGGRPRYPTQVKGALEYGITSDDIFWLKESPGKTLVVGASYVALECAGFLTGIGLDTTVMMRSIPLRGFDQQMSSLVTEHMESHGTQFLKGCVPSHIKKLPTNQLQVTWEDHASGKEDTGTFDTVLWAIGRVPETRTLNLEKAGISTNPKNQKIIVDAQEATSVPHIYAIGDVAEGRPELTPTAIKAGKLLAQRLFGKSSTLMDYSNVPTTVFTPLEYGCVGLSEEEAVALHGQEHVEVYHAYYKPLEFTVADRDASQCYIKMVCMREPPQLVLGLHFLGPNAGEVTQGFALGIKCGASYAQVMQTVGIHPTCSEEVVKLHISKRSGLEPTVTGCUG
mTrxR-C(αMe)UG (Mus musculus, UniProt Q9JLT4), sequence (Q9JLT4 35-524): as above

As for `CCCCCC(O)/C=C/C=O` (stereo not drawn) [4-Hydroxynonenal, 4-hydroxynonenal], the “inhibition of GPX” value in data set [1] is given as “could not be completely inhibited”.

Regarding `C=CC=O` [Acrolein, acrolein (prop-2-enal)], the IC50 in data set [2] worked out at 7 µM.

Take `C=CC=O` [Acrolein, acrolein]: the “inhibition of Trx-reductase activity” value in data set [3] (800 nM acrolein, pH 5.5, 10 min, 22 °C) is 75-85%; in data set [4], 75-85%; in data set [5] (2.5 μM acrolein, pH 4.6, 10 min, 22 °C), 75-85%.

For `O=C/C=C/c1ccccc1` [Cinnamaldehyde], the IC50 in data set [3] amounted to 230 µM; in data set [5] it was 225 µM.

In data set [6], `COc1cc(/C=C/C(=O)CC(=O)/C=C/c2ccc(O)c(OC)c2)ccc1O` [Curcumin, curcumin] displayed a solubility of at most 100 µM. For the same compound, the Trx-reductase activity remains in data set [3] (at 100 uM curcumin, mutant mTrxR) is listed as ~ 65%. Also, in data set [5], the IC50 was 34 µM.

With `O=C(O)c1cc(SSc2ccc([N+](=O)[O-])c(C(=O)O)c2)ccc1[N+](=O)[O-]` [DTNB, 5,5′-dithiobis(2-nitrobenzoic acid)], the Km in data set [7] was 5 ± 0.9 µM.

Take `NCC[Se][Se]CCN` [selenocysteamine, selenocysteamine (diselenide, used as dichloride; selenocystamine)]: in data set [8], the Km came out at 92 ± 0.9 µM.
